Series [1] deals with SUDHL5. Kind of series: Induction of cytotoxicity (CellTiter-Glo, 5 h), SUDHL5.
In series [2] the test system is SUDHL10. In words: Induction of cytotoxicity (CellTiter-Glo, 5 h), SUDHL10.
In series [3] the test system is SUDHL5. In words: Induction of caspase-3/7 activity (Caspase-Glo 3/7), SUDHL5. Format: cell-based. The settings on record: caspase-3/7 induction, SUDHL5 cells, 3 h treatment, median. The gist of the method:
(§1)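 A 3 h, 37 °C compound incubation precedes the Caspase-Glo 3/7 read. After subtracting medium-only signal, EC50s are fitted against the reference compound's maximal caspase induction.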

The subject of series [4] is A2780. In words: Anti-proliferative effect (CellTiter-Glo, 72 h), A2780. The class given is cell-based. As to conditions: A2780 cells, median, read-out: IC50 antiproliferation assay A2780 [M] (median). In a few lines: (§2)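 Plate cells alongside a separate day 0 reference plate. Read the reference plate at once with CellTiter-Glo. Incubate treated cells 72 h at 37 °C, then read them the same way by luminescence.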

Series [5] relates to SUDHL5. Kind of series: Anti-proliferative effect (CellTiter-Glo, 72 h), SUDHL5. Format: cell-based. The settings on record: SUDHL5 cells, antiproliferation, median, read-out: Antiproli SUDHL5 [M] (median). In a few lines: as §2
Series [6] concerns SUDHL10. Kind of series: Induction of caspase-3/7 activity (Caspase-Glo 3/7), SUDHL10. The class given is cell-based. As to conditions: caspase-3/7 induction, SUDHL10 cells, 3 h treatment, median. In a few lines:
as §1

Series [7] has as its target MCL-1 (Homo sapiens, UniProt Q07820). In words: Protein-protein interaction assay MCL-1/Noxa BH3 peptide (MCL-1 assay), TR-FRET. Format: binding. As to conditions: MBP-MCL-1 / Noxa BH3-derived peptide, median. In a few lines:
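Steady-state competition, MCL-1/Noxa BH3, TR-FRET readout; 1 nM MBP-MCL-1, 11-point dose series 0.1 nM–20 μM; overnight 4 °C equilibration; 4-parameter IC50.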

In series [8] the test system is MV-4-11. Kind of series: Anti-proliferative effect (CellTiter-Glo, 72 h), MV-4-11. Format: cell-based. The settings on record: MV-4-11 cells, median, read-out: IC50 antiproliferation assay MV-4-11 [M] (median). The gist of the method:
as §2

Where [9] appears, read: Homo sapiens, SU-DHL-5, 5 h, read-out: Cytotox SUDHL5 [M] (median), SUDHL5 cells, cytotoxicity induction, CellTiter-Glo, 5 h, median.
Setting [10] is: Homo sapiens, SU-DHL10, 5 h, read-out: Cytotox SUDHL10 [M] (median), SUDHL10 cells, cytotoxicity induction, CellTiter-Glo, 5 h, median.
The mark [11] stands for this setting: Homo sapiens, SU-DHL-5, 72 h, 72 h.
[12] abbreviates: read-out: Cytotox SUDHL5 [M] (median), SUDHL5 cells, cytotoxicity induction, CellTiter-Glo, 5 h incubation, median.
The mark [13] stands for this setting: read-out: Cytotox SUDHL10 [M] (median), SUDHL10 cells, cytotoxicity induction, CellTiter-Glo, 5 h incubation, median.

Where two headings read alike, the source gives them in different places.

Sequence of MCL-1 (Q07820 whole entry): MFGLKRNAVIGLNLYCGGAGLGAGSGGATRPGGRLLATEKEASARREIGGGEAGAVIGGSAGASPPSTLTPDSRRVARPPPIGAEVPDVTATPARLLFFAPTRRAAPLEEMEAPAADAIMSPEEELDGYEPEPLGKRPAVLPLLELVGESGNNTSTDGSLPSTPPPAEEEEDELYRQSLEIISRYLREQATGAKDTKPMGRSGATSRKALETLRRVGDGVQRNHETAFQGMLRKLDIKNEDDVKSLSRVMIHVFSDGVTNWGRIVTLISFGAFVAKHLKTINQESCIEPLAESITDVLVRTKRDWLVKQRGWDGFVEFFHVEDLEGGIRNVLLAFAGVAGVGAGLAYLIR

For the molecule `Cc1ccc2c(OCCCc3c(C(=O)O)n4c5c(cccc35)-c3c(nn(C)c3C)COCCCC4)cccc2c1` (racemic) [Example 307, (rac)-11,12-dimethyl-1-(3-((6-methylnaphthalen-1-yl)oxy)propyl)-4,5,6,7,9,11-hexahydropyrazolo[4′,3′:9,10][1,6]oxaazacycloundecino[8,7,6-hi]indole-2-carboxylic Acid], the IC50 in series [1] (setting [9]) was > 3.3e-05 M; in series [2] (setting [10]) it was > 3.3e-05 M; in series [4] (Homo sapiens, A2780, 72 h) it was 1.76e-05 M; in series [5] (setting [11]), 1.19e-05 M; in series [7], 0.0129 µM; in series [8] (Homo sapiens, MV4-11, 72 h), 1.84e-05 M. Also, the concentration giving a half-maximal response (EC50) in series [3] (Homo sapiens, SU-DHL-5, 3 h) was > 33 µM; in series [6] (Homo sapiens, SU-DHL10, 3 h), > 33 µM.
As to `Cc1c2c(nn1C)COCCCCn1c(C(=O)O)c(CCCOc3cccc4cc(C(F)(F)F)ccc34)c3cccc-2c31` (racemic) [Example 310], the IC50 in series [1] (setting [9]) worked out at 2.36e-05 M; in series [2] (setting [10]) it was 1.75e-05 M; in series [4] (Homo sapiens, A2780, 72 h), 6.58e-06 M; in series [5] (setting [11]), 5.42e-06 M; in series [7] it was 0.0331 µM; in series [8] (Homo sapiens, MV4-11, 72 h) it was 1.31e-05 M. The concentration giving a half-maximal response (EC50) in series [3] (Homo sapiens, SU-DHL-5, 3 h) amounted to 27.4 µM; in series [6] (Homo sapiens, SU-DHL10, 3 h), 21.3 µM.
With `Cc1nn(C)c2c1-c1cccc3c(CCCOc4cccc5c(Cl)cccc45)c(C(=O)O)n(c13)CCCCOC2` (racemic) [Example 316, (rac)-1-(3-((5-chloronaphthalen-1-yl)oxy)propyl)-10,12-dimethyl-4,5,6,7,9,10-hexahydropyrazolo[4′,3′:9,10][1,6]oxaazacycloundecino[8,7,6-hi]indole-2-carboxylic Acid], the IC50 in series [1] (setting [9]) was 1.94e-05 M; in series [2] (setting [10]), > 3.3e-05 M; in series [4] (Homo sapiens, A2780, 72 h), > 3.3e-05 M; in series [5] (setting [11]) it was 1.43e-05 M; in series [7], 0.00308 µM; in series [8] (Homo sapiens, MV4-11, 72 h), > 3.3e-05 M. The EC50 in series [3] (Homo sapiens, SU-DHL-5, 3 h) was 17.7 µM; in series [6] (Homo sapiens, SU-DHL10, 3 h), > 33 µM.
Turning to `Cc1c2c(nn1C)COCCCCn1c(C(=O)O)c(CCc3cccc4ccccc34)c3cccc-2c31` (racemic) [Example 354, (rac)-2,3-dimethyl-7-[2-(naphthalen-1-yl)ethyl]-2,10,11,12,13,15-hexahydropyrazolo[4′,3′:9,10][1,6]oxazacycloundecino[8,7,6-hi]indole-8-carboxylic Acid], the IC50 in series [1] (setting [9]) is > 3.3e-05 M; in series [2] (setting [10]), > 3.3e-05 M; in series [4], > 3.3e-05 M; in series [4] (Homo sapiens, A2780, 72 h) it was 2.73e-05 M; in series [5] (setting [11]), > 3.3e-05 M; in series [7], 0.296 µM. Moreover, the IC50 in series [8] (Homo sapiens, MV4-11, 72 h) is > 3.3e-05 M. Besides, the EC50 in series [3] (Homo sapiens, SU-DHL-5, 3 h) was > 33 µM; in series [6] (Homo sapiens, SU-DHL10, 3 h), > 33 µM.
For the molecule `Cc1c2c(nn1C)COCCCCn1c(C(=O)O)c(CCc3ccc(C(F)(F)F)cc3)c3cccc-2c31` (racemic) [Example 355, (rac)-2,3-dimethyl-7-{2-[4-(trifluoromethyl)phenyl]ethyl}-2,10,11,12,13,15-hexahydropyrazolo[4′,3′:9,10][1,6]oxazacycloundecino[8,7,6-hi]indole-8-carboxylic Acid], the IC50 in series [1] (setting [9]) was > 3.3e-05 M; in series [2] (setting [10]), > 3.3e-05 M; in series [4] (Homo sapiens, A2780, 72 h), > 3.3e-05 M; in series [5] (setting [11]), 3.2e-05 M; in series [7], 1.51 µM; in series [8] (Homo sapiens, MV4-11, 72 h) it was > 3.3e-05 M. For the same molecule, the EC50 was > 33 µM in series [3] (Homo sapiens, SU-DHL-5, 3 h) and > 33 µM in series [6] (Homo sapiens, SU-DHL10, 3 h).
As for `Cc1c2c(nn1C)CNCCCCn1c(C(=O)O)c(CCCOc3cccc4ccccc34)c3cccc-2c31` (racemic) [Example 356, (rac)-2,3-dimethyl-7-[3-(naphthalen-1-yloxy)propyl]-10,11,12,13,14,15-hexahydro-2H-pyrazolo[3′,4′:8,9][1,6]diazacycloundecino[10,11,1-hi]indole-8-carboxylic Acid], the IC50 was > 3.3e-05 M in series [1] (setting [9]); > 3.3e-05 M in series [2] (setting [10]); > 3.3e-05 M in series [4] (Homo sapiens, A2780, 72 h); 2.53e-05 M in series [5] (setting [11]); > 3.3e-05 M in series [5] (72 h); 0.00943 µM in series [7]. Moreover, the IC50 in series [8] (Homo sapiens, MV4-11, 72 h) is > 3.3e-05 M. The EC50 in series [3] (Homo sapiens, SU-DHL-5, 3 h) was 27.8 µM; in series [3] it was > 33 µM; in series [6] (Homo sapiens, SU-DHL10, 3 h), > 33 µM.
As for `Cc1c2c(nn1C)COCCCCn1c(C(=O)O)c(CCOc3ccc4ccccc4c3)c3cccc-2c31` (racemic) [Example 357, (rac)-2,3-dimethyl-7-[2-(naphthalen-2-yloxy)ethyl]-2,10,11,12,13,15-hexahydropyrazolo[4′,3′:9,10][1,6]oxazacycloundecino[8,7,6-hi]indole-8-carboxylic Acid], the IC50 in series [1] (setting [9]) is > 3.3e-05 M; in series [2] (setting [10]), > 3.3e-05 M; in series [4] (Homo sapiens, A2780, 72 h), > 3.3e-05 M; in series [5] (setting [11]), 3.27e-05 M; in series [7], 0.0409 µM; in series [8] (Homo sapiens, MV4-11, 72 h), 3.19e-05 M. Moreover, the EC50 in series [3] (Homo sapiens, SU-DHL-5, 3 h) is > 33 µM; in series [6] (Homo sapiens, SU-DHL10, 3 h), > 33 µM.
Turning to `COc1c2c(nn1C)COCCCCn1c(C(=O)O)c(CCCOc3cccc4ccccc34)c3cccc-2c31` (single isomer, unassigned) [Example 208, 3-methoxy-2-methyl-7-[3-(naphthalen-1-yloxy)propyl]-2,10,11,12,13,15-hexahydropyrazolo[4′,3′:9,10][1,6]oxazacycloundecino[8,7,6-hi]indole-8-carboxylate], the IC50 in series [1] (setting [12]) came to 2.63e-06 M; in series [2] (setting [13]) it was 9.98e-06 M; in series [4] (Homo sapiens, A2780, 72 h), 2.03e-05 M; in series [5] (72 h incubation) it was 3.12e-06 M; in series [7], 0.00373 µM; in series [8] (Homo sapiens, MV4-11, 72 h), 2.68e-06 M. Also, the EC50 in series [3] came to 2.99 µM; in series [6] it was 14 µM.
In the case of `Cn1nc(COC2CC2)c2c1COCCCCn1c(C(=O)O)c(CCCOc3cccc4ccccc34)c3cccc-2c31` (single isomer, unassigned) [Example 215, 3-[(cyclopropyloxy)methyl]-1-methyl-7-[3-(naphthalen-1-yloxy)propyl]-1,10,11,12,13,15-hexahydropyrazolo[4′,3′:9,10][1,6]oxazacycloundecino[8,7,6-hi]indole-8-carboxylic Acid], the IC50 was > 3.3e-05 M in series [1] (setting [12]); > 3.3e-05 M in series [2] (setting [13]); > 3.3e-05 M in series [4]; 1.48e-05 M in series [5] (72 h incubation); 0.182 µM in series [7]; 2.33e-05 M in series [8]. Further, the EC50 in series [3] and in series [6] was > 33 µM throughout.
Take `Cn1nc(C(F)(F)F)c2c1COCCCCn1c(C(=O)O)c(CCCOc3cccc4ccccc34)c3cccc-2c31` (single isomer, unassigned) [Example 217, 1-methyl-7-[3-(naphthalen-1-yloxy)propyl]-3-(trifluoromethyl)-1,10,11,12,13,15-hexahydropyrazolo[4′,3′:9,10][1,6]oxazacycloundecino[8,7,6-hi]indole-8-carboxylic Acid]: the IC50 in series [1] (setting [12]) was 3.92e-06 M; in series [2] (setting [13]) it was 1.58e-05 M; in series [4] it was 2.92e-05 M; in series [4] (Homo sapiens, A2780, 72 h) it was > 3.3e-05 M; in series [5] (72 h incubation), 5.58e-06 M; in series [7] it was 0.00251 µM. In addition, the IC50 in series [8] was determined as 1.52e-05 M. Further, the values for the concentration for a half-maximal effect (EC50) in series [3] and in series [6] were 3.5 µM and 13.4 µM, respectively.
For `Cn1nc(C(F)(F)F)c2c1COCCCCn1c(C(=O)O)c(CCCOc3cccc4ccccc34)c3cccc-2c31` (single isomer, unassigned) [Example 218, 1-methyl-7-[3-(naphthalen-1-yloxy)propyl]-3-(trifluoromethyl)-1,10,11,12,13,15-hexahydropyrazolo[4′3′:9,10][1,6]oxazacycloundecino[8,7,6-hi]indole-8-carboxylic Acid], the IC50 was 2.76e-05 M in series [1] (setting [12]); > 3.3e-05 M in series [2] (setting [13]); 2.52e-05 M in series [4]; 1.71e-05 M in series [5] (72 h incubation); 0.559 µM in series [7]; 3.05e-05 M in series [8]. Moreover, the EC50 in series [3] and in series [6] was > 33 µM throughout.

(Values after US10981932B2, “Macrocyclic indole derivatives” (Bayer Aktiengesellschaft, priority 2016, dated 2021).)
